We go through 13 molecules from paper PMC2009897, “Comparison of mutagenesis and malignant transformation by dihydrodiols from benz[a]anthracene and 7,12-dimethylbenz[a]anthracene” (British Journal of Cancer, 1979).

Values joined by “and” are separate entries in the source; they are usually repeats but may differ in a detail not shown here. Identical values can stand only once. Like-named read-outs stand apart in the source and are kept apart here.

The subject of data set [1] is V79 Chinese hamster cells. Briefly: Cytotoxicity (plating efficiency) in V79 Chinese hamster cells. In kind it is cell-based.
In data set [2] the test system is M2 mouse fibroblasts. The experiment in a line: Plating efficiency of M2 mouse fibroblasts. In kind it is cell-based.
Data set [3] concerns M2 mouse fibroblasts.
Data set [4] relates to V79 Chinese hamster cells.
The next data set relates to V79 cells. Set-up: method as in Slaga et al., 1978. The note with it: presence of mono-oxygenase systems; ref Slaga et al., 1978; cited from earlier work.
Data set [5] deals with Salmonella typhimurium TA100. The note with it: cited from earlier work; for Mutagenic activity in Salmonella typhimurium TA100: presence of mono-oxygenase systems, ref Wood et al., 1976; for Microsome-mediated mutagenic activity in S. typhimurium TA100: ref Malaveille et al., 1978.
Data set [6] deals with M2 mouse fibroblasts. The note with it: cited from earlier work.
The subject of data set [7] is V79 Chinese hamster cells. The following applies: ref Wood et al. (1977a); cited from earlier work.
The next data set has as its system mouse skin. The following applies: cited from earlier work.
Another data set concerns newborn mice. Set-up: method as in Wislocki et al., 1976. The note with it: ref Wislocki et al., 1976; cited from earlier work.
In another data set the test system is C3H/HeJ mice. The note with it: 106 cells from 2 clones transformed by the compound, 3 mice/clone (6 mice), five weeks after injection.

In the case of `Cc1c2c(c(C)c3ccccc13)[C@@H](O)[C@H](O)c1ccccc1-2` (relative stereo) [trans-5,6-Dihydro-5,6-dihydroxy-DMBA, trans-5,6-dihydro-5,6-dihydroxy-DMBA], the “Plating efficiency (%) in V79 cells” value in data set [1] (1.0 µg/ml, 3 h, Table I) is 80%; in data set [1] (5.0 µg/ml, 3 h, Table I), 73%; in data set [1] (10.0 µg/ml, 3 h, Table I), 57%. The “Plating efficiency (%) in M2 cells” value with M2 mouse fibroblasts [2] (1.0 µg/ml, 24 h, Table I) turned out to be 28%; with M2 mouse fibroblasts [2] (5.0 µg/ml, 24 h, Table I), 28%; in the data set on M2 mouse fibroblasts [2] (10.0 µg/ml, 24 h, Table I) it was 20%. For the same molecule, the “Induction of malignant transformation in M2 mouse fibroblasts (result in words)” value (“Induction of malignant transformation” for short) with M2 mouse fibroblasts [3] is “inactive in both test systems”. For the same molecule, the “Transformed foci/103 survivors” value in the data set on M2 mouse fibroblasts [3] is listed as 0. The Transformed foci/dishes treated with M2 mouse fibroblasts [3] was 0/10.
In the case of `OC1c2cc3ccc4ccccc4c3cc2C2OC2C1O` (single isomer, unassigned) [syn-isomer, benz[a]anthracene 8,9-diol 10,11-oxide], the “Plating efficiency (%) in V79 cells” value in data set [1] (0.6 µg/ml, 3 h, Table II) is reported as 56%; in [1] (1.2 µg/ml, 3 h, Table II), 50%; in [1] (2.5 µg/ml, 3 h, Table II) it was 49%; in [1] (5.0 µg/ml, 3 h, Table II), 48%. Also, the “Plating efficiency (%) in M2 cells” value in the data set with M2 mouse fibroblasts [2] (1.2 µg/ml, 24 h, Table II) worked out at 47%; in the data set with M2 mouse fibroblasts [2] (2.5 µg/ml, 24 h, Table II), 49%; in the data set on M2 mouse fibroblasts [2] (5.0 µg/ml, 24 h, Table II) it was 30%. In data set [4], the “Induction of mutations to 8-azaguanine resistance in V79 cells (result in words)” value (“Induction of mutations … (result in words)” for short) is on record as “mutagenic”. Also, the “Induction of malignant transformation” value in the data set on M2 mouse fibroblasts [3] was “inactive”.
`O[C@@H]1C=Cc2ccc3cc4ccccc4cc3c2[C@H]1O` (relative stereo) [trans-1,2-Dihydro-1,2-dihydroxy BA, trans-1,2-Dihydro-1,2-dihydroxy-BA]: in the data set on V79 cells, the “Mutagenic activity in V79 cells” value is “not found to be active”. For the same molecule, the “Plating efficiency (%) in V79 cells” value turned out to be 99% in [1] (1.2 µg/ml, 3 h, Table I); 95% in data set [1] (2.5 µg/ml, 3 h, Table I); 89% in [1] (5.0 µg/ml, 3 h, Table I); 55% in data set [1] (10.0 µg/ml, 3 h, Table I). For the same molecule, in data set [5], the “Mutagenic activity in Salmonella typhimurium TA100” value was “not found to be active”. The “Plating efficiency (%) in M2 cells” value was found to be 44% in the data set on M2 mouse fibroblasts [2] (1.2 µg/ml, 24 h, Table I); 40% in the data set on M2 mouse fibroblasts [2] (2.5 µg/ml, 24 h, Table I); 37% in the data set on M2 mouse fibroblasts [2] (5.0 µg/ml, 24 h, Table I); 10% in the data set on M2 mouse fibroblasts [2] (10.0 µg/ml, 24 h, Table I).
Take `Cc1c2ccccc2c(C)c2c1ccc1ccccc12` [DMBA, 7,12-dimethylbenz[a]anthracene]: in data set [1], the “Plating efficiency (%) in V79 cells” value was 63% and 39%. Moreover, the “Plating efficiency (%) in M2 cells” value in the data set with M2 mouse fibroblasts [2] was 26% and 24%. In data set [4], the “Induction of mutations … (result in words)” value was “inactive”. Also, in the data set on M2 mouse fibroblasts [3], the “Induction of malignant transformation” value is on record as “some activity”.
Turning to `Cc1c2c(c(C)c3c1ccc1ccccc13)C=C[C@@H](O)[C@@H]2O` (relative stereo) [trans-8,9-Dihydro-8,9-dihydroxy-DMBA, trans-8,9-dihydro-8,9-dihydroxy-DMBA], the “Plating efficiency (%) in V79 cells” value in data set [1] (0.25 µg/ml, 3 h, Table I) worked out at 62%; in data set [1] (0.5 µg/ml, 3 h, Table I), 45%; in [1] (1.0 µg/ml, 3 h, Table I) it was 32%. Moreover, the “Microsome-mediated mutagenic activity in S. typhimurium TA100” value in data set [5] is “some mutagenic activity”. Also, the “Plating efficiency (%) in M2 cells” value in the data set on M2 mouse fibroblasts [2] (0.25 µg/ml, 24 h, Table I) was 26%; in the data set on M2 mouse fibroblasts [2] (0.5 µg/ml, 24 h, Table I) it was 22%; with M2 mouse fibroblasts [2] (1.0 µg/ml, 24 h, Table I), 7%. Besides, the “Activity in M2 cells (malignant transformation), earlier observations” value in the data set with M2 mouse fibroblasts [6] is “active”. For the same molecule, the “Induction of malignant transformation” value with M2 mouse fibroblasts [3] is “induced mutations in V79 cells and malignant transformation in M2 mouse fibroblasts”. In the data set on M2 mouse fibroblasts [3], the “Malignant transformation in M2 cells compared with the parent hydrocarbon” value was “more active than the parent hydrocarbon”.
As for `c1ccc2cc3c(ccc4ccccc43)cc2c1` [BA, benz[a]anthracene], the “Plating efficiency (%) in V79 cells” value in data set [1] was 82% and 70%. The “Plating efficiency (%) in M2 cells” value with M2 mouse fibroblasts [2] is 32% and 29%. Besides, in [4], the “Induction of mutations … (result in words)” value was “inactive”.
As for `Cc1c2c(c(C)c3c1ccc1ccccc13)[C@@H](O)[C@H](O)C=C2` (relative stereo) [trans-10,11-Dihydro-10,11-dihydroxy-DMBA, trans-10,11-dihydro-10,11-dihydroxy-DMBA], the “Plating efficiency (%) in V79 cells” value was 76% in [1] (0.25 µg/ml, 3 h, Table I); 68% in data set [1] (0.5 µg/ml, 3 h, Table I); 44% in data set [1] (1.0 µg/ml, 3 h, Table I). Besides, the “Plating efficiency (%) in M2 cells” value in the data set on M2 mouse fibroblasts [2] (0.25 µg/ml, 24 h, Table I) was 30%; with M2 mouse fibroblasts [2] (0.5 µg/ml, 24 h, Table I), 26%; in the data set with M2 mouse fibroblasts [2] (1.0 µg/ml, 24 h, Table I) it was 11%. Further, the “Induction of malignant transformation” value in the data set with M2 mouse fibroblasts [3] is “inactive in both test systems”. Also, the “Transformed foci/103 survivors” value in the data set on M2 mouse fibroblasts [3] amounted to 0.
Turning to `O[C@@H]1C=Cc2cc3ccc4ccccc4c3cc2[C@H]1O` (relative stereo) [trans-10,11-Dihydro-10,11-dihydroxy-BA, trans-10,11-dihydro-10,11-dihydroxy-BA], the “Plating efficiency (%) in M2 cells” value is 44% in the data set on M2 mouse fibroblasts [2] (2.5 µg/ml, 24 h, Table I); 37% in the data set on M2 mouse fibroblasts [2] (5.0 µg/ml, 24 h, Table I); 29% in the data set with M2 mouse fibroblasts [2] (10.0 µg/ml, 24 h, Table I).
Take `O[C@@H]1C=Cc2cc3c(ccc4ccccc43)cc2[C@H]1O` (relative stereo) [trans-8,9-Dihydro-8,9-dihydroxy-BA, trans-8,9-dihydro-8,9-dihydroxy-BA]: the “Plating efficiency (%) in V79 cells” value in data set [1] (2.5 µg/ml, 3 h, Table I) came out at 57%; in data set [1] (5.0 µg/ml, 3 h, Table I) it was 54%; in data set [1] (10.0 µg/ml, 3 h, Table I) it was 53%. The “Plating efficiency (%) in M2 cells” value is recorded as 44% with M2 mouse fibroblasts [2] (2.5 µg/ml, 24 h, Table I); 39% with M2 mouse fibroblasts [2] (5.0 µg/ml, 24 h, Table I); 30% in the data set on M2 mouse fibroblasts [2] (10.0 µg/ml, 24 h, Table I).
As to `OC1c2cc3ccc4ccccc4c3cc2C2OC2C1O` (single isomer, unassigned) [anti-isomer, benz[a]anthracene 8,9-diol 10,11-oxide], the “Plating efficiency (%) in V79 cells” value in data set [1] (0.6 µg/ml, 3 h, Table II) is 57%; in [1] (1.2 µg/ml, 3 h, Table II), 48%; in data set [1] (2.5 µg/ml, 3 h, Table II), 41%; in data set [1] (5.0 µg/ml, 3 h, Table II), 35%. Further, the “Plating efficiency (%) in M2 cells” value in the data set on M2 mouse fibroblasts [2] (1.2 µg/ml, 24 h, Table II) was determined as 26%; in the data set with M2 mouse fibroblasts [2] (2.5 µg/ml, 24 h, Table II), 12%; with M2 mouse fibroblasts [2] (5.0 µg/ml, 24 h, Table II) it was 6%. Besides, the “Induction of mutations in V79 cells, anti versus syn isomer” value in [7] is on record as “more active than the syn”.
As for `O[C@@H]1C=Cc2c(ccc3cc4ccccc4cc23)[C@H]1O` (relative stereo) [trans-3,4-Dihydro-3,4-dihydroxy BA, trans-3,4-dihydro-3,4-dihydroxy-BA], the “Mutagenic activity in V79 cells” value in the data set with V79 cells is “active”. Besides, the “Plating efficiency (%) in V79 cells” value in data set [1] (2.5 µg/ml, 3 h, Table I) was found to be 93%; in data set [1] (5.0 µg/ml, 3 h, Table I), 84%; in data set [1] (10.0 µg/ml, 3 h, Table I) it was 56%. For the same molecule, the “Mutagenic activity in Salmonella typhimurium TA100” value in data set [5] is recorded as “active”. For the same molecule, the “Plating efficiency (%) in M2 cells” value with M2 mouse fibroblasts [2] (2.5 µg/ml, 24 h, Table I) was found to be 50%; in the data set on M2 mouse fibroblasts [2] (5.0 µg/ml, 24 h, Table I), 38%; with M2 mouse fibroblasts [2] (10.0 µg/ml, 24 h, Table I) it was 12%. Also, the “Initiator of tumours on mouse skin” value in the data set on mouse skin (ref Wood et al., 1977b, Slaga et al., 1978) was “highly active”. Moreover, the “Inducer of tumours in newborn mice” value with newborn mice is given as “highly active”.
Regarding `O[C@@H]1c2ccccc2-c2cc3ccccc3cc2[C@H]1O` (relative stereo) [trans-5,6-Dihydro-5,6-dihydroxy BA, trans-5,6-Dihydro-5,6-dihydroxy-BA], the “Plating efficiency (%) in V79 cells” value in data set [1] (2.5 µg/ml, 3 h, Table I) is reported as 85%; in data set [1] (5.0 µg/ml, 3 h, Table I), 74%; in data set [1] (10.0 µg/ml, 3 h, Table I), 59%. In addition, the “Plating efficiency (%) in M2 cells” value with M2 mouse fibroblasts [2] (2.5 µg/ml, 24 h, Table I) came out at 44%; with M2 mouse fibroblasts [2] (5.0 µg/ml, 24 h, Table I), 42%; in the data set on M2 mouse fibroblasts [2] (10.0 µg/ml, 24 h, Table I) it was 40%.
Turning to `Cc1c2ccccc2c(C)c2c3c(ccc12)[C@@H](O)[C@H](O)C=C3` (relative stereo) [trans-3,4-Dihydro-3,4-dihydroxy-DMBA, trans-3,4-dihydro-3,4-dihydroxy-DMBA], the “Animals that developed malignant fibrosarcomas” value with C3H/HeJ mice was determined as 6 animals. Moreover, the “Plating efficiency (%) in V79 cells” value in data set [1] (0.12 µg/ml, 3 h, Table I) is given as 67%; in [1] (0.25 µg/ml, 3 h, Table I), 58%; in data set [1] (0.5 µg/ml, 3 h, Table I) it was 50%; in data set [1] (1.0 µg/ml, 3 h, Table I), 43%. Moreover, the “Microsome-mediated mutagenic activity in S. typhimurium TA100” value in data set [5] is “high”. The “Plating efficiency (%) in M2 cells” value with M2 mouse fibroblasts [2] (0.12 µg/ml, 24 h, Table I) was determined as 31%; in the data set with M2 mouse fibroblasts [2] (0.25 µg/ml, 24 h, Table I) it was 26%; in the data set on M2 mouse fibroblasts [2] (0.5 µg/ml, 24 h, Table I), 25%; in the data set on M2 mouse fibroblasts [2] (1.0 µg/ml, 24 h, Table I) it was 15%. Besides, the “Initiator of tumours on mouse skin” value in the data set on mouse skin (ref I. Chouroulinkov, personal communication) is listed as “acts as an initiator of tumours on mouse skin”. The “Induction of malignant transformation” value in the data set on M2 mouse fibroblasts [3] was “induced mutations in V79 cells and malignant transformation in M2 mouse fibroblasts”. Also, the “Malignant transformation in M2 cells compared with the parent hydrocarbon” value in the data set with M2 mouse fibroblasts [3] was “more active than the parent hydrocarbon”.
